Where two headings read alike, the source gives them in different places. Marks after values point to notes of the source that are not given here. Numbered stars: 1 amine (or outer) side, 2 acyl side, 3 side chain; on linkers, the order of the positions; unused ones are H or OH. Bridge positions count the residues as written; N and C are the ends. Square brackets hold non-standard residues; d marks the D form. Peptide text beside a SMILES is read from it. * marks the point of attachment. C20 diacid = O=C(O)CCCCCCCCCCCCCCCCCCC(=O)*; γGlu = O=C(O)[C@H](CCC(=O)[*:2])N[*:1]; NMeI = CC[C@H](C)[C@H](NC)C(=O)O; Sar = CNCC(=O)O
Columns and labels:
[1] = target: T1, human amylin receptor 3 (hAMYR3) consisting of hCTR2 co-expressed with human Receptor Activity Modifying Protein 3 (hRAMP3) (Homo sapiens, UniProt O60896+P30988); assay: hAMYR3 assay: induction of cAMP (AlphaScreen cAMP Assay kit) in COS7 cells expressing hAMYR3; assay type: cell-based
T1 construct: expressed in transfected cells
T1 sequence (P30988 25-474): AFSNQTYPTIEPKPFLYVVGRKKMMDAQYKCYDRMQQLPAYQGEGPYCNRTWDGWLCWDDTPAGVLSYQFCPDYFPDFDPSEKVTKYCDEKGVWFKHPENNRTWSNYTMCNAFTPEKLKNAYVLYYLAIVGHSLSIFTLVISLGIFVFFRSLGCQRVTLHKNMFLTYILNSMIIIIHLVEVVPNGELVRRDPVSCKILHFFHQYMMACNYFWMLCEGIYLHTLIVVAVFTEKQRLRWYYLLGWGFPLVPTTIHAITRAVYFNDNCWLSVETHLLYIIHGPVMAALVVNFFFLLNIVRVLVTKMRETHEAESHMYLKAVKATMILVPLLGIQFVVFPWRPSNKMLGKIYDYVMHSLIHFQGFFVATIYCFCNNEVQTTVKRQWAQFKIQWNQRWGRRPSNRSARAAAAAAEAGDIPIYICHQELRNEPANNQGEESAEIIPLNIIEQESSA
T1 sequence (O60896 24-148 partner): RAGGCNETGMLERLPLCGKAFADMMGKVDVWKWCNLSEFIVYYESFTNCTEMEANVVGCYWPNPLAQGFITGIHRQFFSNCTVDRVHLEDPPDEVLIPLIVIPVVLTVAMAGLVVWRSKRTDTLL
Method in brief: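 Stable COS7 clone co-expressing hCTR2 and hRAMP3, stimulated 15 min at 37° C with increasing peptide in Tyrode buffer pH 7.4 with 100 µM IBMX and 0.1% casein. cAMP measured by AlphaScreen after lysis; EC50 and % efficacy versus pramlintide from 4PL fit.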

[2] = Assessment of physical stability: fibril formation detected with Thioflavin T (ThT), lag-time; assay type: physicochemical; details: 1 mg/ml peptide, 40 µM ThT, FND = Fibrillation not detected; for Fibrillation lag time (hours) pH 4.0 (Ac): 50 mM acetate buffer pH 4.0, 96 hours at 40°C; for Fibrillation lag time (hours) pH 7.0 (His): 50 mM histidine buffer pH 7.0, 96 hours at 40°C; for Fibrillation lag time (hours) pH 7.0 (Ph): 50 mM phosphate buffer pH 7.0, 96 hours at 40°C
Method in brief: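 Test peptide at 1 mg/ml with 40 µM ThT in 50 mM phosphate (pH 7.0), 50 mM histidine (pH 7.0) or 50 mM acetate (pH 4.0), in triplicate, 40° C. for 96 h. Fluorescence read every 10 min after 300 s agitation. Lag-time (h) taken as intersection of linear fits to initial stable and growth phases.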

Compound | EC50 [1] | Fibrillation lag time (hours) pH 4.0 (Ac) [2] | Fibrillation lag time (hours) pH 7.0 (His) [2] | Fibrillation lag time (hours) pH 7.0 (Ph) [2] | EC50 ([1]; cAMP induction in COS7 cells expressing hAMYR3, average of a minimum of 3 determinations, read-out: hAMY R3 EC50)
CC[C@H](C)[C@@H](C(=O)N[C@@H](CC(C)C)C(=O)N[C@@H](CO)C(=O)N[C@@H](CO)C(=O)N[C@H](C(=O)N[C@@H](CC(N)=O)C(=O)N[C@H](C(=O)NCC(=O)N[C@@H](CO)C(=O)N[C@@H](CC(N)=O)C(=O)N[C@H](C(=O)N1CCC[C@H]1C(N)=O)[C@@H](C)O)C(C)C)[C@@H](C)O)N(C)C(=O)[C@H](C)NC(=O)CN(C)C(=O)[C@H](Cc1ccccc1)NC(=O)[C@H](CC(N)=O)NC(=O)[C@H](CC(N)=O)NC(=O)[C@H](CO)NC(=O)[C@H](CO)NC(=O)[C@H](Cc1c[nH]cn1)NC(=O)[C@H](Cc1c[nH]cn1)NC(=O)[C@H](CC(C)C)NC(=O)[C@H](Cc1ccccc1)NC(=O)[C@H](CCC(=O)O)NC(=O)[C@H](C)NC(=O)[C@H](CC(C)C)NC(=O)[C@H](CCCNC(=N)N)NC(=O)[C@H](CCC(N)=O)NC(=O)[C@@H](NC(=O)[C@H](C)NC(=O)[C@@H]1CSSC[C@H](NC(=O)[C@H](CCCNC(=N)N)NC(=O)CC[C@H](NC(=O)CCCCCCCCCCCCCCCCCCC(=O)O)C(=O)O)C(=O)N[C@@H](CC(N)=O)C(=O)N[C@@H]([C@@H](C)O)C(=O)N[C@@H](C)C(=O)N[C@@H]([C@@H](C)O)C(=O)N1)[C@@H](C)O [Compound 1, [19CD]-isoGlu-RC()NTATC()ATQRLAEFLHHSSNNF-Gly(Me)-A-Ile(Me)-LSSTNVGSNTP-NH2] ({C20 diacid-γGlu}-RCNTATCATQRLAEFLHHSSNNF[Sar]A[NMeI]LSSTNVGSNTP-NH2; disulfide 2-7) | 0.21 nM | FND^§§ | FND | FND | –
CC[C@H](C)[C@@H](C(=O)N[C@@H](CC(C)C)C(=O)N[C@@H](CO)C(=O)N[C@@H](CO)C(=O)N[C@H](C(=O)N[C@@H](CC(N)=O)C(=O)N[C@H](C(=O)NCC(=O)N[C@@H](CO)C(=O)N[C@@H](CC(N)=O)C(=O)N[C@H](C(=O)N1CCC[C@H]1C(N)=O)[C@@H](C)O)C(C)C)[C@@H](C)O)N(C)C(=O)[C@H](C)NC(=O)CN(C)C(=O)[C@H](Cc1ccccc1)NC(=O)[C@H](CC(N)=O)NC(=O)[C@H](CC(N)=O)NC(=O)[C@H](CO)NC(=O)[C@H](CO)NC(=O)[C@H](CCCNC(=N)N)NC(=O)[C@H](Cc1c[nH]cn1)NC(=O)[C@H](CC(C)C)NC(=O)[C@H](Cc1ccccc1)NC(=O)[C@H](CCC(=O)O)NC(=O)[C@H](C)NC(=O)[C@H](CC(C)C)NC(=O)[C@H](CCCNC(=N)N)NC(=O)[C@H](CCC(N)=O)NC(=O)[C@@H](NC(=O)[C@H](C)NC(=O)[C@@H]1CSSC[C@H](NC(=O)[C@H](CCCNC(=N)N)NC(=O)CC[C@H](NC(=O)CCCCCCCCCCCCCCCCCCC(=O)O)C(=O)O)C(=O)N[C@@H](CC(N)=O)C(=O)N[C@@H]([C@@H](C)O)C(=O)N[C@@H](C)C(=O)N[C@@H]([C@@H](C)O)C(=O)N1)[C@@H](C)O [Compound 18, [19CD]-isoGlu-RC()NTATC()ATQRLAEFLHRSSNNF-Gly(Me)-A-Ile(Me)-LSSTNVGSNTP-NH2] ({C20 diacid-γGlu}-RCNTATCATQRLAEFLHRSSNNF[Sar]A[NMeI]LSSTNVGSNTP-NH2; disulfide 2-7) | 0.17 nM | 20 hours | 33 hours | 33 hours | –
CC[C@H](C)[C@@H](C(=O)N[C@@H](CC(C)C)C(=O)N[C@@H](CO)C(=O)N[C@@H](CO)C(=O)N[C@H](C(=O)N[C@@H](CC(N)=O)C(=O)N[C@H](C(=O)NCC(=O)N[C@@H](CO)C(=O)N[C@@H](CC(N)=O)C(=O)N[C@H](C(=O)N1CCC[C@H]1C(N)=O)[C@@H](C)O)C(C)C)[C@@H](C)O)N(C)C(=O)[C@H](C)NC(=O)CN(C)C(=O)[C@H](Cc1ccccc1)NC(=O)[C@H](CC(N)=O)NC(=O)[C@H](CC(N)=O)NC(=O)[C@H](CO)NC(=O)[C@H](CO)NC(=O)[C@H](CCCNC(=N)N)NC(=O)[C@H](Cc1c[nH]cn1)NC(=O)[C@H](CC(C)C)NC(=O)[C@H](Cc1ccccc1)NC(=O)[C@H](CCC(=O)O)NC(=O)[C@H](C)NC(=O)[C@H](CC(C)C)NC(=O)[C@H](CCCNC(=N)N)NC(=O)[C@H](CCC(N)=O)NC(=O)[C@@H](NC(=O)[C@H](C)NC(=O)[C@@H]1CSSC[C@H](NC(=O)[C@H](CCCCN)NC(=O)[C@H](CCCCN)NC(=O)CC[C@H](NC(=O)CCCCCCCCCCCCCCCCCCC(=O)O)C(=O)O)C(=O)N[C@@H](CC(N)=O)C(=O)N[C@@H]([C@@H](C)O)C(=O)N[C@@H](C)C(=O)N[C@@H]([C@@H](C)O)C(=O)N1)[C@@H](C)O [Compound 87, [19CD]-isoGlu-KKC()NTATC()ATQRLAEFLHRSSNNF-Gly(Me)-A-Ile(Me)-LSSTNVGSNTP-NH2] ({C20 diacid-γGlu}-KKCNTATCATQRLAEFLHRSSNNF[Sar]A[NMeI]LSSTNVGSNTP-NH2; disulfide 3-8) | – | 78^‡ hours | FND | 50^‡‡ hours | –
CC[C@H](C)[C@@H](C(=O)N[C@@H](CC(C)C)C(=O)N1CCC[C@H]1C(=O)N1CCC[C@H]1C(=O)N[C@H](C(=O)N[C@@H](CC(N)=O)C(=O)N[C@H](C(=O)NCC(=O)N[C@@H](CO)C(=O)N[C@@H](CC(N)=O)C(=O)N[C@H](C(=O)N1CCC[C@H]1C(N)=O)[C@@H](C)O)C(C)C)[C@@H](C)O)N(C)C(=O)CN(C)C(=O)[C@H](Cc1ccccc1)NC(=O)[C@H](CC(N)=O)NC(=O)[C@H](CC(N)=O)NC(=O)[C@H](CO)NC(=O)[C@H](CO)NC(=O)[C@H](Cc1c[nH]cn1)NC(=O)[C@H](Cc1c[nH]cn1)NC(=O)[C@H](CC(C)C)NC(=O)[C@H](Cc1ccccc1)NC(=O)[C@H](CCC(=O)O)NC(=O)[C@H](C)NC(=O)[C@H](CC(C)C)NC(=O)[C@H](CCCNC(=N)N)NC(=O)[C@H](CCC(N)=O)NC(=O)[C@@H](NC(=O)[C@H](C)NC(=O)[C@@H]1CSSC[C@H](NC(=O)[C@H](CCCNC(=N)N)NC(=O)CC[C@H](NC(=O)CCCCCCCCCCCCCCCCCCC(=O)O)C(=O)O)C(=O)N[C@@H](CC(N)=O)C(=O)N[C@@H]([C@@H](C)O)C(=O)N[C@@H](C)C(=O)N[C@@H]([C@@H](C)O)C(=O)N1)[C@@H](C)O [Compound 176, [19CD]-isoGlu-RC()NTATC()ATQRLAEFLHHSSNNF-Gly(Me)-Ile(Me)-LPPTNVGSNTP-NH2] ({C20 diacid-γGlu}-RCNTATCATQRLAEFLHHSSNNF[Sar][NMeI]LPPTNVGSNTP-NH2; disulfide 2-7) | – | – | – | – | 0.17 nM
CC[C@H](C)[C@H](NC(=O)[C@@H]1CCCN1C(=O)CNC(=O)[C@H](Cc1ccccc1)NC(=O)[C@H](CC(N)=O)NC(=O)[C@H](CC(N)=O)NC(=O)[C@H](CO)NC(=O)[C@H](CO)NC(=O)[C@H](Cc1c[nH]cn1)NC(=O)[C@H](Cc1c[nH]cn1)NC(=O)[C@H](CC(C)C)NC(=O)[C@H](Cc1ccccc1)NC(=O)[C@H](CCC(=O)O)NC(=O)[C@H](C)NC(=O)[C@H](CC(C)C)NC(=O)[C@H](CCCNC(=N)N)NC(=O)[C@H](CCC(N)=O)NC(=O)[C@@H](NC(=O)[C@H](C)NC(=O)[C@@H]1CSSC[C@H](NC(=O)[C@H](CCCNC(=N)N)NC(=O)CC[C@H](NC(=O)CCCCCCCCCCCCCCCCCCC(=O)O)C(=O)O)C(=O)N[C@@H](CC(N)=O)C(=O)N[C@@H]([C@@H](C)O)C(=O)N[C@@H](C)C(=O)N[C@@H]([C@@H](C)O)C(=O)N1)[C@@H](C)O)C(=O)N[C@@H](CC(C)C)C(=O)N1CCC[C@H]1C(=O)N1CCC[C@H]1C(=O)N[C@H](C(=O)N[C@@H](CC(N)=O)C(=O)N[C@H](C(=O)NCC(=O)N[C@@H](CO)C(=O)N[C@@H](CC(N)=O)C(=O)N[C@H](C(=O)N1CCC[C@H]1C(N)=O)[C@@H](C)O)C(C)C)[C@@H](C)O [NN96, N-α-[(S)-4-carboxy-4-(19-carboxynonadecanoylamino)butyryl]-[Arg1,Glu14,His17,Pro37]-pramlintide, reference compound] ({C20 diacid-γGlu}-RCNTATCATQRLAEFLHHSSNNFGPILPPTNVGSNTP-NH2; disulfide 2-7) | 0.15 nM | – | – | – | –

— patent publication EP3046573B1, “AMYLIN ANALOGUES” (Zealand Pharma A/S, priority 2013, dated 2015)
